How the values were obtained:
P-gp [1] = assay: Ubiquitination of P-gp in primary human brain endothelial cells (immunoprecipitation, IFA); assay type: cell-based; details: 15 minutes
Protocol: FIG. 10A is a western blot showing immunoprecipitation analysis of ubiquitination of P-gp in human primary brain endothelial cells upon activation with Lexiscan® for 15 minutes. P-gp was pulled down with an anti-P-gp antibody and immunoblotted with an anti-ubiquitin antibody. FIG. 10B are immunofluorescence microscopy images depicting ubiquitination of P-gp in human primary brain endothelial cells upon activation with Lexiscan® for 15 minutes. Cells were fixed, permeabilized, and stained with an anti-P-gp (green) and anti-ubiquitin (red) antibody. Nucleus was counterstained with DAPI (blue). The scale bar indicates 25 μm. FIG. 10C is a schematic diagram depicting the mechanism of P-gp down-regulation by Lexiscan®. Upon activation of A2A AR, P-gp is cleaved by MMP9 and secreted to the extracellular space (a), or ubiquitinated and digested by proteasome (b), or can relocate from the soluble fraction to the insoluble fraction (c). These mechanisms may occur independently or in combination.
4 G Sepharose beads were purchased from Invitrogen and incubated with human P-gp antibody (BD Biosciences) overnight at 4° C. using a rocking shaker. Beads were washed twice using lysis buffer containing protease inhibitor, and lysates from primary brain endothelial cells were incubated overnight at 4° C. using a rocking shaker. […]

P-gp [2] = assay: P-gp expression in Caco-2 human tumor cell line (IFA MFI, western blot); assay type: cell-based; details: 1 μM for 30 minutes (IFA), 1, 0.5, 0.1 μM (western blot)
Protocol: FIG. 19A are fluorescence microscopy images of Caco-2 cells (originally isolated from a human primary colonic tumor) grown on coverslips and treated with Lexiscan® (1 μM) or A1193 (1 μM), or DMSO (vehicle) control for 30 minutes. Next, cells were fixed, permeabilized, and stained with an antibody to P-gp. After washing, cells were mounted with DAPI for nuclear staining. FIG. 19B is a graph of the MFI of P-gp. FIG. 19C is a graph of densitometric analysis of a western blot of Caco-2 cells treated with Lexiscan® in varying concentrations (1, 0.5, and 0.1 μM). Densitometric analysis was performed to quantify the amount of P-gp in western blot. Statistics: two tailed student's t test for FIG. 19B, *<0.5.
Applicants also evaluated whether A2A AR agonists can modulate P-gp expression in a human tumor cell line, Caco-2 cells. Briefly, Caco-2 cells (originally isolated from a human tumor) were grown on coverslips and treated with Lexiscan®, A1193, or vehicle control for 30 minutes. Cells were then fixed, permeabilized, and stained with an antibody to P-gp. After washing, cells were mounted with DAPI for nuclear staining (FIG. 19A). The mean fluorescence intensity (MFI) of P-gp was quantified and graphed in FIG. 19B.

P-gp [3] = assay: P-gp expression in HEK293T kidney cell line (IFA MFI, western blot); assay type: cell-based, human; details: Lexiscan® 1, 0.5, 0.1 μM
Protocol: FIGS. 20A and 20B illustrate that Lexiscan® downregulates P-gp expression in the kidney cell line HEK293T while treatment with antagonist SCH58261 blocks Lexiscan®'s effects. […] HEK293T cells were grown to confluency on coverslips, and treated with varying concentrations of Lexiscan® (1, 0.5, and 0.1 μM) for 15 minutes. Cells were permeabilized and then stained with an antibody to P-gp (C219) and visualized under a fluorescent microscope. FIG. 20B is a graph of the MFI of P-gp in FIG. 20A. DMSO vs. Lexiscan® (“Lex”), *=P<0.05, Lexiscan® (“Lex”)+SCH58261 (“SCH”), ****P<0.0001.
HEK293T transformed kidney cells were treated with varying concentration of Lexiscan® (1, 0.5, 0.1 μM). Cells were lysed with lysis buffer ([…]), containing protease inhibitor cocktail. Samples were loaded on 7% SDS PAGE at 100V for 1 hour and transferred to nitrocellulose paper. The intensity of bands were analyzed by densitometry and plotted as a graph. Statistics: two-tailed student's t test: *=P<0.5, ****=P<0.0001.
Applicants investigated whether A2A AR agonists could modulate P-gp expression in the HEK293T human kidney cell line. HEK293T cells were grown to confluency on coverslips and treated with varying concentrations of Lexiscan, Lexiscan® plus the A2A antagonist (SCH58261), or vehicle control for 15 minutes. Cells were then permeabilized, stained with an antibody to P-gp, and visualized under a fluorescent microscope (FIG. 20A). The mean fluorescence intensity (MFI) of P-gp was quantified and graphed in FIG. 20B.
HEK293T cells were treated with various concentrations of Lexiscan, lysed, loaded onto an SDS-PAGE gel, transferred to a nitrocellulose membrane, and used for western blot analysis.

[4] = cited from earlier work

SMILES	Ubiquitinylation of P-gp (P-gp [1])	P-gp expression (P-gp [2])	P-gp expression (western blot densitometry) (P-gp [3])	P-gp expression (MFI) (P-gp [3]; 15 minutes)	half-life [4] [h]
CNC(=O)c1cnn(-c2nc(N)c3ncn([C@@H]4O[C@H](CO)[C@@H](O)[C@H]4O)c3n2)c1 [Lexiscan®, 1-[6-amino-9-[(2R,3R,4S,5R)-3,4-dihydroxy-5-(hydroxymethyl)oxolan-2-yl]purin-2-yl]-N-methylpyrazole-4-carboxamide]	induced increased ubiquitinylation of P-gp compared with vehicle control	down-regulates P-gp expression in Caco-2	significantly down-regulated P-gp expression in transformed HEK293T cells	down-regulates P-gp expression in HEK293T cells	
CCNC(=O)[C@H]1O[C@@H](n2cnc3c(N)ncnc32)[C@H](O)[C@@H]1O [NECA, (2S,3S,4R,5R)-5-(6-aminopurin-9-yl)-N-ethyl-3,4-dihydroxyoxolane-2-carboxamide]					5

From patent US10953015B2, “Use of adenosine receptor signaling to regulate P-gp function” (CORNELL UNIVERSITY, priority 2016, dated 2021)
